These results are taken from ChEMBL document CHEMBL1201862, “PubChem BioAssay data set” (2004).

Among the test systems are HL-60; MOLT-4; SK-MEL-2; OVCAR-3; SNB-75; OVCAR-8; CCRF-CEM; RXF 393; SR; NCI-H460; SK-MEL-28; EKVX; U-251; Malme-3M; HOP-92; M14; UACC-257; HOP-62; IGROV-1; SNB-19.
Common to all, as to experiment: inhibition of tumour cell growth, NCI panel, 48 h

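96-well plates; 48 h exposure; 5 concentrations. Endpoints by linear interpolation between flanking doses. Not reached: highest tested concentration assigned. Here, GI50 denotes the concentration required for 50% inhibition of growth.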 Calls of active or inactive are those of the source. Cut-off read from the data, not from the text of the source: active = GI50 up to about 1.1 µM and inactive = higher.

Regarding `O=S(=O)(O)C(CO)c1ccccc1.O=S(=O)(O)Cc1ccccc1` (stereo not given), the GI50 is 5.35 µM (inactive) in the experiment on HL-60; > 100 µM (inactive) in the experiment with MOLT-4; > 100 µM (inactive) with SK-MEL-2; > 100 µM (inactive) in the experiment on OVCAR-3; > 100 µM (inactive) in the experiment with SNB-75; > 100 µM (inactive) with OVCAR-8. For the same molecule, the GI50 in the experiment with CCRF-CEM was 19.6 µM (inactive); with RXF 393 it was > 100 µM (inactive); with SR, > 100 µM (inactive); in the experiment on NCI-H460, > 100 µM (inactive); with SK-MEL-28 it was > 100 µM (inactive); with EKVX, > 100 µM (inactive). Moreover, the GI50 with U-251, in the experiment with Malme-3M, in the experiment with HOP-92, in the experiment on M14, with UACC-257 and in the experiment on HOP-62 was > 100 µM (inactive) in each case. Moreover, the GI50 in the experiment with IGROV-1 and in the experiment on SNB-19 was > 100 µM (inactive) in each case.

In the case of `COC1(OC)C[C@H](C)[C@@]23O[C@]24C2=CC(=O)C=CC2=N[C@H]3C#C/C=C\C#C[C@]14O`, the GI50 in the experiment with HL-60 is 0.0431 µM (active); in the experiment on MOLT-4 it was 0.0187 µM (active); in the experiment on SK-MEL-2 it was 1.66 µM (inactive); in the experiment on OVCAR-3, 0.431 µM (active); in the experiment with SNB-75 it was 0.133 µM (active); with OVCAR-8, 0.659 µM (active). The GI50 is 0.044 µM (active) in the experiment with CCRF-CEM; 0.537 µM (active) in the experiment with RXF 393; 0.032 µM (active) in the experiment with SR; 0.344 µM (active) with NCI-H460; 1.08 µM (active) in the experiment on SK-MEL-28; 0.578 µM (active) with EKVX. Further, the GI50 was 0.805 µM (active) with U-251; 0.671 µM (active) in the experiment on Malme-3M; 0.532 µM (active) with HOP-92; 0.53 µM (active) in the experiment on M14; 1.49 µM (inactive) in the experiment on UACC-257; 0.787 µM (active) in the experiment with HOP-62. The GI50 was 0.724 µM (active) in the experiment with IGROV-1 and 1.55 µM (inactive) in the experiment on SNB-19.
